# Entries after “also recorded” stand apart in the source; their conditions may differ.
# What was measured:
# mouse primary podocytes = assay: CRELD2 expression in mouse primary podocytes treated with ER stress inducers (WB, immunofluorescence); format: cell-based; details: for CRELD2 immunofluorescence in podocytes: TM 2 μg/ml or TG 1 μM for 24 h, overlapped with BiP; for CRELD2 expression in cell lysates (WB): TM 2 μg/ml or TG 1 μM for 24 h vs DMSO vehicle
# Method: FIG. 9A is an image of a Western blot showing mouse primary podocytes were treated with DMSO (control), tunicamycin (TM) (2 μg/ml) or thapsigargin (TG) (1 μM) for 24 h. Cell lysates were analyzed by WB with the indicated antibodies. TM and TG are ER stress inducers.
# FIG. 9B is a series of images showing control and TM- or TG-treated mouse podocytes, as described in FIG. 9A stained for CRELD2 (red) and BiP (green). Nuclei were counterstained with Hoechst 33342 (blue). Scale bar, 40 μm.
# CRELD2 is a urinary biomarker for detecting podocyte ER stress in the early stages of podocyte ER stress-induced nephrotic syndrome (NS) in mice. Initial experiments (see e.g., Example 2) determined ER stress increases CRELD2 expression and secretion in mouse primary podocytes. Mouse podocytes were treated for 24 h with tunicamycin (TM), which activates ER stress by blocking N-linked glycosylation in the ER (26), or TG, which depletes ER calcium through inhibition of ER calcium ATPase (27). […] The effects of ER stress on CRELD2 secretion were also examined.
# Isolated glomeruli from Lamb2^+/−, Lamb2^−/−; Tg-C321R and Lamb2^−/−; Tg-WT mice at P27 were suspended in DMEM/Ham's F-12 (2:1) that contained 0.45 μm-filtered 3T3-L1 supernatant, 5% heat inactivated FBS, ITS (Insulin-Transferrin-Sodium Selenite) liquid media supplement, and 100 U/ml penicillin-streptomycin; plated onto collagen type I-coated petri dishes; and incubated at 37° C. in room air with 5% CO2. After 3 days, cell colonies began to sprout around the glomeruli. […] Only passages 1-2 podocytes from the indicated genotypes were used in the in vitro studies.
# For immunocytochemistry, mouse primary podocytes were seeded on cover slips coated with 5 μg/ml rat collagen I that was dissolved in 0.02M acetic acid in 24 well plates for 48 hours. After 24 hours treatment with DMSO, TM or TG, the cells were fixed with 4% PFA for 20 minutes and permeabilized with 1% Triton X-100 for 5 minutes at room temperature, blocked with 1% BSA for 30 minutes at room temperature, followed by incubation with goat anti-mouse CRELD2 (R&D) and rabbit anti-mouse BiP antibodies for an additional 1 hour at room temperature. The cover slips were washed with PBS and incubated with the corresponding Alexa 594- or Alexa 488-conjugated secondary antibodies and Hoechst 33342 to stain nuclei. The cover slips were then mounted with anti-quench solution and visualized using a fluorescence microscope (Nikon).
# Isolated mouse glomeruli and cultured mouse primary podocytes were lysed by RIPA buffer (Sigma) containing protease inhibitor cocktail (Roche, Indianapolis, Ind.). TM untreated- and treated-kidneys, as well as sham-operated and I/R-injured kidneys, were extracted using the same lysis buffer with the protease inhibitors and homogenized by sonication. The protein concentrations of cell, glomerular and kidney lysates were determined by Bio-Rad protein assay (Hercules, Calif.) using BSA as a standard. Denatured proteins were separated on SDS polyacrylamide gel electrophoresis (SDS-PAGE) and then transferred to PVDF membranes. Blots were blocked with 5% non-fat milk for 1 hour and then incubated overnight with primary antibodies. The membranes were washed with Tris-buffered saline/TWEEN® (polysorbate) buffer and incubated with the appropriate HRP-conjugated secondary antibodies. […] Relative intensities of protein bands were quantified using ImageJ (NIH) analysis software.
# C57BL/6J mice [1] = details: cited from earlier work
# C57BL/6J mice [2] = assay: TM-induced AKI mouse model (kidney and urine CRELD2/BiP, histology); format: in vivo; details: for BiP in ER stressed-tubular cells (immunofluorescence): 1 day and 5 days post TM injection (FIG. 19); for urinary CRELD2 excretion (WB): urine within 24 hours after TM 1 mg/kg IP vs vehicle; for BiP in urine (immunodetection): within 24 hr from TM injection, no obvious histological changes of kidney injury (FIG. 20)
# Method: FIG. 10A is a bar graph showing quantitative RT-PCR analysis of relative transcript levels of CRELD2 in kidneys at the indicated time points following TM injection (1 mg/kg, IP) as compared to DMSO vehicle-injected controls. Absolute levels were normalized first to those of GAPDH and then to the levels in the control kidneys (mean±SD). **P<0.01 and ***P<0.001 by ANOVA (n=3 mice per group).
# FIG. 10B is a series of images showing dual IF staining for CRELD2 (green) and LTL (red) on paraformaldehyde-fixed, sucrose-cryoprotected kidney sections from mice treated with vehicle or TM (1 mg/kg) at the indicated time points. Nuclei were counterstained with Hoechst 33342 (blue). G: glomerulus. Scale bars, 40 μm.
# FIG. 10C is a Western blot showing whole-kidney lysates from mice treated with or without TM (1 mg/kg) at different time points were analyzed by WB for levels of CRELD2 and β-actin.
# FIG. 10E is an image of a Western blot showing the detection of urinary CRELD2 within 1 day of TM injection. Urines were collected for 24 hours after the mice were injected with vehicle or 1 mg/kg TM (IP). Crude urine samples from mice treated with vehicle (n=8) or TM (n=8) were analyzed by WB for CRELD2 excretion. The urinary CRELD2 excretion was normalized to 2 μg of urine Cr excretion.
# Intraperitoneal (IP) injection of TM in mice is a well characterized AKI model caused by renal proximal tubular ER stress (29). […] In comparison, glomeruli and other organs are spared (21, 29).
# TM was dissolved in DMSO at 2 mg/ml, and injected intraperitoneally at 1 mg/kg into 6-10 weeks old C57BL/6J mice. Urine was collected from metabolic cages in which the mice were immediately placed after the injection. 1 day or 5 days after the injection, sera were obtained, and kidneys were harvested. One kidney was snap frozen in dry ice and stored at −70 C until further processing for protein and RNA. The other kidney was fixed in 4% paraformaldehyde (PFA) (pH 7.4) at 4 C and then transferred to 15% and 30% sucrose/PBS for OCT-embedded cryosections.
# For dual staining of CRELD2 with biotinylated LTL in mouse kidneys, […]. After dewaxing, PFA-fixed, sucrose-cryoprotected kidney sections from control or TM-treated mice were subjected to antigen retrieval by immersion in 10 mM citric acid buffer (pH 6.0) for 5 minutes at 95 C. […] Nonspecific avidin binding was blocked by an avidin/biotin blocking kit (Vector laboratories) before incubating kidney sections with 1% BSA for 30 minutes at room temperature. The slides were stained with a goat anti-mouse CRELD2 antibody (R&D) together with biotinylated LTL overnight at 4° C., followed by an Alexa 488-conjugated anti-goat secondary antibody and Alexa 594-conjugated streptavidin as well as Hoechst 33342. For CRELD2 staining in sham-operated and post-ischemic kidneys, the fluorescent signal was further amplified using a Fluorescein tyramide amplification kit (Perkin-Elmer, Waltham, Mass.) according to the manufacturer's instructions. Slides were analyzed under a fluorescence microscope (Nikon).
# Isolated mouse glomeruli and cultured mouse primary podocytes were lysed by RIPA buffer (Sigma) containing protease inhibitor cocktail (Roche, Indianapolis, Ind.). TM untreated- and treated-kidneys, as well as sham-operated and I/R-injured kidneys, were extracted using the same lysis buffer with the protease inhibitors and homogenized by sonication. The protein concentrations of cell, glomerular and kidney lysates were determined by Bio-Rad protein assay (Hercules, Calif.) using BSA as a standard. Denatured proteins were separated on SDS polyacrylamide gel electrophoresis (SDS-PAGE) and then transferred to PVDF membranes. Blots were blocked with 5% non-fat milk for 1 hour and then incubated overnight with primary antibodies. The membranes were washed with Tris-buffered saline/TWEEN® (polysorbate) buffer and incubated with the appropriate HRP-conjugated secondary antibodies. […]
Molecule,CRELD2 immunofluorescence in podocytes (mouse primary podocytes),CRELD2 expression in cell lysates (WB) (mouse primary podocytes),"form of CRELD2 expressed (WB) (mouse primary podocytes; TM 2 μg/ml, 24 h)","ER stress response genes including BiP, CHOP, MANF and EDEM (C57BL/6J mice [1]; day 1 after TM injection)",renal function and histology (C57BL/6J mice [1]; day 1 after TM injection),"renal histology after IP injection of TM (C57BL/6J mice [1]; peaks between 4 and 5 days after injection, glomeruli and other organs spared)",CRELD2 in ER-stressed proximal tubular cells (marked by LTL) (C57BL/6J mice [2]; 1 day and 5 days post TM injection (FIG. 4)),BiP in ER stressed-tubular cells (immunofluorescence) (C57BL/6J mice [2]),BiP in ER stressed-tubular cells (immunofluorescence) (C57BL/6J mice [2]; listed as tunicamycin),"CRELD2 immunostaining in proximal tubules (co-IF with LTL) (C57BL/6J mice [2]; 5 days post-injection, TM 1 mg/kg IP)","CRELD2 induction in glomeruli (IF) (C57BL/6J mice [2]; TM-injected kidneys, 1 mg/kg IP)",BiP in kidney lysates (immunodetection) (C57BL/6J mice [2]; TM-injected mice (FIG. 18)),"CRELD2 in kidney lysates (immunodetection) (C57BL/6J mice [2]; TM-injected mice, time not stated (FIG. 3))",CRELD2 transcript levels in whole-kidney lysates (RT-PCR) (C57BL/6J mice [2]; day 1 after TM 1 mg/kg IP vs DMSO vehicle or day 5),CRELD2 immunostaining in proximal tubules (co-IF with LTL) (C57BL/6J mice [2]; day 1 following TM 1 mg/kg IP vs controls),"CRELD2 protein expression in kidneys (WB) (C57BL/6J mice [2]; day 1 vs controls or day 5 post-injection, TM 1 mg/kg IP)",urinary CRELD2 excretion (WB) (C57BL/6J mice [2]),urinary CRELD2 excretion (WB) (C57BL/6J mice [2]; listed as tunicamycin),BiP in urine (immunodetection) (C57BL/6J mice [2]),BiP in urine (immunodetection) (C57BL/6J mice [2]; listed as tunicamycin)
"C/C=C(/C)C(=O)O[C@H]1C(C)=C2[C@H]([C@@H]1OC(=O)CCCCCCC)[C@@](C)(OC(C)=O)C[C@H](OC(=O)CCC)[C@@]1(O)[C@H]2OC(=O)[C@@]1(C)O [TG, thapsigargin]",upregulated,induced expression of CRELD2,–,–,–,–,–,–,–,–,–,–,–,–,–,–,–,–,–,–
tunicamycin [TM],upregulated,induced expression of CRELD2,underglycosylated form of CRELD2,upregulated,normal renal function and the absence of conspicuous histologic changes,"extensive tubular dilation, epithelial flattening, tubular basement membrane denudation and loss of brush borders in proximal tubules",upregulated,upregulated,upregulation,subsided,did not exhibit CRELD2 induction,induced,induced,significantly increased,substantially upregulated,higher,can be detected; also recorded: dramatically increased,immunodetection of CRELD2 in the urine,detected,immunodetection of BiP in urine
